Consider 14 compounds from PubChem BioAssay (NCI).

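Cultured in 96-well plates, cells were exposed to test compound for 48 hours across five concentrations. GI50 marks 50% less growth. TGI is the concentration that stops growth completely.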

The TGI is the concentration giving total growth inhibition. Low values mean greater sensitivity of the cells, high ones lower sensitivity of the cells. By GI50 is commonly meant the concentration that inhibits growth by half.

Experiment in all cases: DTP human tumour cell line panel, 48 h
Experiment [1] has as its system 786-0 renal.
For experiment [2], the system named is HT29 colon.
In experiment [3] the test system is NCI-H460 lung.
Experiment [4] has as its system CAKI-1 renal.
Experiment [5] concerns SK-MEL-2 melanoma.
Experiment [6] has as its system UO-31 renal.
The subject of experiment [7] is MOLT-4 leukemia.
Experiment [8] has as its system EKVX NSCLC.
For experiment [9], the system named is M14 melanoma.
Experiment [10] concerns HOP-92 NSCLC.
Experiment [11] has as its system MDA-MB-435.

Consider `O=C(O)C(CS)N=c1c2ccccc2n(O)c2ccccc12` (centres undefined), for which the concentration for total growth inhibition (TGI) in [1], in [2], in experiment [3], in [4], in experiment [5] and in experiment [6] was above 100 µM each time. Moreover, the total growth inhibition concentration (TGI) in experiment [7], in experiment [8] and in [9] was above 100 µM in each case.

Regarding `CC1(C(=O)O)CCCC1C(=O)O` (centres undefined), the TGI in experiment [1], in experiment [2], in [3], in [10], in experiment [4] and in [5] was above 100 µM in each case. For the same compound, the concentration for total growth inhibition (TGI) in experiment [6], in experiment [7], in experiment [8] and in [9] was above 100 µM each time.

As to `COC1(OC)CCCCC2c3cccc(OC(C)=O)c3C21OC(C)=O` (centres undefined), the TGI in experiment [1], in experiment [2], in experiment [5], in experiment [6], in experiment [7] and in experiment [8] was above 100 µM in each case. For the same compound, in experiment [9], the concentration for total growth inhibition (TGI) is above 100 µM.

Turning to `N#Cc1c(-c2ccc(F)cc2)nc(N/N=C/c2c[nH]c3ccccc23)nc1N1CCOCC1`, the GI50 in [2] was 1.11 µM; in experiment [11], 9.26 µM; in experiment [3] it was 3.48 µM; in experiment [10], 2.44 µM; in [5] it was 3.5 µM; in [6], 1.76 µM. Further, the GI50 is 1.6 µM in experiment [7], 5.44 µM in experiment [8] and 2.1 µM in [9]. Besides, the total growth inhibition concentration (TGI) in [2] is 22.6 µM; in experiment [11], 74.9 µM; in experiment [3], 25.2 µM; in experiment [10], 52.4 µM; in experiment [5], 17.7 µM; in [6] it was 55.2 µM. The TGI is 9.63 µM in [7], 86.9 µM in experiment [8] and 4.87 µM in experiment [9].

Take `COC(=O)C1CC2(c3ccccc3)C(=O)c3ccccc3N2O1` (centres undefined): the TGI in experiment [1], in experiment [2], in [3], in experiment [10], in experiment [4] and in [5] was above 100 µM in each case. Further, the TGI is 75.8 µM in experiment [7], above 100 µM in [8] and above 100 µM in experiment [9].

Turning to `COC(=O)/C=C/c1cc(OC)c(OC)c(OC)c1`, the TGI in experiment [1], in experiment [2], in [3], in experiment [10], in experiment [4] and in experiment [5] was above 100 µM each time. The TGI in experiment [6], in [7], in experiment [8] and in experiment [9] was above 100 µM each time.

For the compound `CCC(C(=O)c1ccc(OC)c(OC)c1)N(C(=O)C(F)(F)F)C(C)c1ccccc1` (centres undefined), the total growth inhibition concentration (TGI) in [2], in experiment [11], in experiment [3], in experiment [4], in experiment [6] and in [7] was above 100 µM each time. Further, the TGI in experiment [8] and in experiment [9] was above 100 µM each time.

With `O=C(Cc1ccc([N+](=O)[O-])cc1)OCC#CCOC(=O)Cc1ccc([N+](=O)[O-])cc1`, the total growth inhibition concentration (TGI) in [1], in experiment [2], in experiment [11], in [3], in experiment [10] and in experiment [5] was above 10 µM throughout. The concentration for total growth inhibition (TGI) in experiment [6], in experiment [7], in experiment [8] and in experiment [9] was above 10 µM throughout.

Consider `Nc1ccc2[nH]c(-c3cccc(Cl)c3)cc(=O)c2c1`, for which the TGI in experiment [1] is above 100 µM; in experiment [2], 29.5 µM; in experiment [11], 2.39 µM; in experiment [3], above 100 µM; in experiment [10], 9.69 µM; in experiment [7] it was above 100 µM. The concentration for total growth inhibition (TGI) in experiment [8] and in experiment [9] was above 100 µM throughout.

As for `C=CCOCCCCC(C(C)=O)C(=O)OC` (centres undefined), the TGI in [1], in [2], in [3], in experiment [10], in experiment [4] and in experiment [5] was above 100 µM each time. Also, the TGI in experiment [6], in [7] and in experiment [9] was above 100 µM each time.

Turning to `CC(=O)OC/C=C(/C=C/CNC1CCCCC1)OC(C)=O`, the TGI in [1] is 23.9 µM; in experiment [2], 35.5 µM; in [11], 30.4 µM; in experiment [3] it was 52.1 µM; in [10], 25.5 µM; in [4] it was 26.7 µM. For the same compound, the total growth inhibition concentration (TGI) in [5] was 43.8 µM; in [7], above 100 µM; in experiment [8], 30.1 µM; in experiment [9], 21.2 µM.

Turning to `O=C(CC1=NCCN1)c1ccccc1`, the concentration for total growth inhibition (TGI) in experiment [2] was above 750 µM; in experiment [3] it was above 511 µM; in [10] it was above 750 µM; in experiment [4], above 750 µM; in experiment [5] it was above 750 µM; in experiment [6] it was above 750 µM. The TGI in experiment [7] and in experiment [8] was above 750 µM throughout.

Regarding `O=C(N/N=C/c1cc(Br)cc(Br)c1[O-])c1ccccc1O.O=C(N/N=C/c1cc(Br)cc(Br)c1[O-])c1ccccc1O.[Fe+2]`, the TGI in experiment [2] was 19.7 µM; in experiment [3], 22.2 µM; in [10], 6.89 µM; in experiment [4] it was 34.5 µM; in experiment [5], 21.4 µM; in experiment [6], 25.3 µM. For the same compound, the TGI is 19.8 µM in experiment [7], 50.3 µM in [8] and 14.5 µM in [9].

In the case of `CCCCc1ccc(Nc2nc3c(ncn3COCCO)c(=O)[nH]2)cc1`, the TGI in experiment [1], in [2], in experiment [11], in [10], in [5] and in experiment [6] was above 100 µM throughout. Also, the concentration for total growth inhibition (TGI) in experiment [7], in experiment [8] and in experiment [9] was above 100 µM throughout.
